In assay [1] the target is T1, Thromboxane A2 receptor (Rattus norvegicus, UniProt P34978).
T1 sequence (P34978 whole entry): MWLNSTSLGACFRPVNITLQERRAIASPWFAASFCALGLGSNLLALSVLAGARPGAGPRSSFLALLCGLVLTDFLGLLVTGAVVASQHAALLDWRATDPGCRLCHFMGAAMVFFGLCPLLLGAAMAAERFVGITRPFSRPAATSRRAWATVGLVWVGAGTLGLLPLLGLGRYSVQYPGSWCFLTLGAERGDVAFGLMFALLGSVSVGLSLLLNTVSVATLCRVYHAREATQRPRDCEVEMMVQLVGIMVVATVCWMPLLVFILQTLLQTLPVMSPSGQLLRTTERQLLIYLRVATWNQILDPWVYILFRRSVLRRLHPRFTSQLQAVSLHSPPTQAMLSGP
In words: Tested for antagonistic activity on isolated rat thoracic aorta (thromboxane A2 receptor) precontracted by U-46619 (3 x 10 e-8 M). In kind it is functional, tissue-based.

A further assay is filed under the species Oryctolagus cuniculus. In words: Tested for 50% maximal aggregation of rabbit platelet-rich plasma induced by 4 x 10 e-6 M U-46619. The format is functional.
In assay [2] the target is T1, Thromboxane A2 receptor. In words: Tested for antagonistic activity on isolated rat thoracic aorta (TXA2 receptor) precontracted by U-46619 (3 x 10 e-8 M). In kind it is functional, tissue-based.

Bounds are passed on as bounds.

`CC(C)c1ccc2c(CCCCCS(=O)(=O)Nc3ccc(Cl)cc3)cc(C(=O)O)c-2cc1` yielded an IC50 against Thromboxane A2 receptor [1] of 1.7 µM. That is a single-digit micromolar value.

Regarding `CC(C)c1ccc2c(CCCCS(=O)(=O)Nc3ccc(Cl)cc3)cc(C(=O)O)c-2cc1`, the IC50 was more than 1000 µM in the assay listed under Oryctolagus cuniculus and 2.6 µM at Thromboxane A2 receptor [1].

As for `CC(C)c1ccc2c(CCC/C=N/NC(=O)Nc3ccc(Cl)cc3)cc(C(=O)O)c-2cc1`, the IC50 at Thromboxane A2 receptor [1] is more than 100 µM.

Take `CC(C)c1ccc2c(CCCCNS(=O)(=O)c3ccc(Cl)cc3)cc(S(=O)(=O)O)c-2cc1`: inhibition against Thromboxane A2 receptor [1] was half-maximal at 0.0009 µM (IC50).

Regarding `CC(C)c1ccc2c(CCCC(=O)NS(=O)(=O)c3ccc(Cl)cc3)cc(S(=O)(=O)O)c-2cc1`, the figures for the IC50 in the assay listed under Oryctolagus cuniculus and against Thromboxane A2 receptor [1] were 56 µM and 54 µM, respectively.

With `CC(C)c1ccc2c(CCCCCS(=O)(=O)Nc3ccccc3)cc(C(=O)O)c-2cc1`, the midpoint of inhibition against Thromboxane A2 receptor [1], the IC50, lay at 1.5 µM.

On to `CC(C)c1ccc2c(CCCS(=O)(=O)Nc3ccccc3)cc(C(=O)O)c-2cc1`, for which, on Thromboxane A2 receptor [1], the IC50 was 12 µM.

As for `CC(C)c1ccc2c(CNC(=O)CNS(=O)(=O)c3ccccc3)cc(C(=O)O)c-2cc1`, the IC50 in the assay listed under Oryctolagus cuniculus was more than 1000 µM; against Thromboxane A2 receptor [1], more than 100 µM.

In turn, `CC(C)c1ccc2c(CNC(=O)CNC(=O)c3ccc(Cl)cc3)cc(C(=O)O)c-2cc1` registered an IC50 on Thromboxane A2 receptor [1] of more than 100 µM.

The compound `CC(C)c1ccc2c(CCCCCS(=O)(=O)Nc3ccc(Cl)cc3)cc(S(=O)(=O)O)c-2cc1` yielded an IC50 at Thromboxane A2 receptor [1] of 0.86 µM.

`O=C(O)COc1ccc(CCNS(=O)(=O)c2ccccc2)cc1` [SULOTROBAN] registered a half-maximal inhibitory concentration (IC50) on Thromboxane A2 receptor [1] of 1.5 µM.

The compound `CC(C)c1ccc2c(CCCC(=O)NS(=O)(=O)c3ccccc3)cc(C(=O)O)c-2cc1` came in with an IC50 at Thromboxane A2 receptor [1] of more than 100 µM.

For `CC(C)c1ccc2c(CCCC(=O)NS(=O)(=O)c3ccc(Cl)cc3)cc(C(=O)O)c-2cc1`, the IC50 is more than 1000 µM in the assay filed under Oryctolagus cuniculus and 19 µM against Thromboxane A2 receptor [1].

On Thromboxane A2 receptor [1], `CC(C)c1ccc2c(CCCS(=O)(=O)Nc3ccccc3)cc(S(=O)(=O)O)c-2cc1` had an IC50 of 8.7 µM.

At Thromboxane A2 receptor [1], `CC(C)c1ccc2c(CCCS(=O)(=O)Nc3ccc(Cl)cc3)cc(S(=O)(=O)O)c-2cc1` yielded an IC50 of 0.86 µM. This IC50 is about 10-fold lower than that of the compound before.

Consider `CC(C)c1ccc2c(CCC/C=N\NC(=O)Nc3ccccc3)cc(C(=O)O)c-2cc1`, for which the IC50 was more than 1000 µM in the assay listed under Oryctolagus cuniculus and more than 100 µM against Thromboxane A2 receptor [1].

In turn, `CC(C)c1ccc2c(CCC/C=N/N=C(\S)Nc3ccc(Cl)cc3)cc(C(=O)O)c-2cc1` registered an IC50 against Thromboxane A2 receptor [1] of more than 100 µM.

As for `CC(C)c1ccc2c(CCC/C=N/N=C(\S)Nc3ccccc3)cc(C(=O)O)c-2cc1`, the concentration for half-maximal inhibition (IC50) in the assay listed under Oryctolagus cuniculus was more than 1000 µM; on Thromboxane A2 receptor [1], 590 µM.

`CC(C)c1ccc2c(CCCC(=O)NS(=O)(=O)c3ccccc3)cc(S(=O)(=O)O)c-2cc1`: the IC50 on Thromboxane A2 receptor [1] turned out to be 65 µM.

At Thromboxane A2 receptor [1], `CC(C)c1ccc2c(CCCCS(=O)(=O)Nc3ccccc3)cc(C(=O)O)c-2cc1` came in with a half-maximal inhibitory concentration (IC50) of 8.7 µM.

Turning to `CC(C)c1ccc2c(CCCCCS(=O)(=O)Nc3ccccc3)cc(S(=O)(=O)O)c-2cc1`, the IC50 against Thromboxane A2 receptor [1] stood at 1.4 µM.

For the compound `CC(C)c1ccc2c(CNC(=O)CNC(=O)c3ccccc3)cc(C(=O)O)c-2cc1`, the IC50 in the assay filed under Oryctolagus cuniculus was more than 1000 µM; on Thromboxane A2 receptor [2], more than 100 µM.

For `CC(C)c1ccc2c(CCCCS(=O)(=O)Nc3ccccc3)cc(S(=O)(=O)O)c-2cc1`, the IC50 against Thromboxane A2 receptor [1] was found to be 1.5 µM.

As to `CC(C)c1ccc2c(CNC(=O)CNS(=O)(=O)c3ccc(Cl)cc3)cc(C(=O)O)c-2cc1`, the IC50 against Thromboxane A2 receptor [1] is more than 100 µM.

`CC(C)c1ccc2c(CCCS(=O)(=O)Nc3ccc(Cl)cc3)cc(C(=O)O)c-2cc1` gave an IC50 at Thromboxane A2 receptor [1] of 9.1 µM.

As for `CC(C)c1ccc2c(CCCCS(=O)(=O)Nc3ccc(Cl)cc3)cc(S(=O)(=O)O)c-2cc1`, the IC50 is more than 1000 µM in the assay listed under Oryctolagus cuniculus and 0.22 µM at Thromboxane A2 receptor [1].

Usually IC50 stands for the concentration at which inhibition is half-maximal. A lower IC50 goes with higher potency.

For the origin of these results see ChEMBL document CHEMBL1126534, “Role of sulfonamide moiety in non-prostanoid txa2 receptor antagonist kt2-962 : modifications of this moiety and the resulting activities” (Bioorg Med Chem Lett, 1993).
